Source: patent US20120184591A1, “METHODS FOR TREATING PROSTATITIS” (WATSON PHARMACEUTICALS, INC., priority 2011, published 2012)

Key:
[1] = Study SI06004: plasma pharmacokinetics of silodosin and metabolites, 8 mg once daily for 7 days; format: in vivo, human; settings: for Tmax: 8 mg once daily, immediate-release
Procedure: FIG. 2 depicts the mean steady-state silodosin plasma concentration versus time profile in fed target-aged subjects after administering 8 mg silodosin QD (from Study SI06004).
This is illustrated in Table 1 and FIG. 2. Study SI06004 assessed the area under the plasma concentration time curve for silodosin and four of its metabolites, as well as safety and tolerability, following administration of 8 mg once daily for 7 days.

men with CP/CPPS [2] = test: 12-week Phase II study (NCT00740779): safety and tolerability (adverse events); format: in vivo, human
Procedure: (§1) A 12-week, multicenter, double-blind, placebo-controlled, Phase II study (ClinicalTrials.gov identifier: NCT00740779) was conducted between September 2008 and October 2009. The protocol was approved by an Institutional Review Board before study initiation, and the study was conducted in accordance with the Declaration of Helsinki and the US Code of Federal Regulations. The primary end point was change from baseline to week 12 in the NIH—CPSI total score. Secondary end points included safety; change from baseline in NIH—CPSI pain, urinary, and HRQoL subscores; and change from baseline in SF-12 physical and mental component scores. In addition, responder analyses were conducted for the global response assessment (GRA) and NIH—CPSI at week 12.
(§2) Patients were randomized 1:1:1 to receive silodosin 4 mg, silodosin 8 mg, or placebo once daily with food at breakfast for 12 weeks. Two doses of silodosin were chosen to evaluate the dose dependency of treatment effects in patients with CP/CPPS. The maximum dose of silodosin 8 mg/d was selected based on its established safety and efficacy profile in patients with BPH.
(§3) Baseline parameters were assessed after a 4-week screening period. All efficacy assessments were made with self-administered patient surveys. Patients completed the NIH—CPSI and subscales, GRA scale, and pain medication usage surveys at baseline and at weeks 4, 8, and 12 of the study. SF-12 was completed at baseline and at study end (week 12 or time of discontinuation). Safety was monitored over the course of the study through adverse events reporting, clinical laboratory tests, and vital signs assessments.
(§4) All efficacy and safety data were summarized using descriptive statistics for continuous variables and frequency distributions for categorical variables. Efficacy end points were analyzed in the intent-to-treat (ITT) population, which consisted of all randomized patients with a baseline assessment for the NIH—CPSI total score. The primary efficacy variable and continuous secondary variables were analyzed for significance at α=0.05 (with Bonferroni correction for multiple comparisons) using analysis of covariance models with the baseline measurement of the efficacy variable as the covariate and effects of treatment. Because of the small number of patients in many participating centers, study center was not included in statistical analysis models. All analyses were conducted with SAS® v8.2 (SAS Institute Inc., Cary, N.C.). Last observation carried forward (LOCF) was used to impute missing values. […] GRA and NIH—CPSI responder analyses were done with chi-square tests at α=0.025 (two-sided) to account for multiple comparisons.

[3] = Study SI07004: silodosin pharmacokinetics after seven daily doses of 4 mg or 8 mg in healthy male subjects; format: in vivo, human; settings: after 7 days of dosing; for AUC(0-t) / half-life / Cmax / Tmax: male, human, plasma
Source text: FIG. 3 depicts the mean silodosin plasma concentration time profile by dose level and timepoint after multiple doses (from Study SI07004).

men with CP/CPPS [4] = test: 12-week double-blind placebo-controlled Phase II study (NCT00740779): efficacy (NIH-CPSI, SF-12, GRA); format: in vivo, human; settings: for SF-12 mental component, adjusted mean difference versus placebo (95% CI) / SF-12 mental component, change from baseline, mean ± SD / SF-12 physical component, adjusted mean difference versus placebo (95% CI) / SF-12 physical component, change from baseline, mean ± SD: study end, ITT
Procedure: as §1
Study participants were recruited from 32 centers across the United States, including mostly community-based practices and a few university medical centers. […] Patients were excluded if they had participated in a study of an investigational agent within the past 30 days, had experienced two or more urinary tract infections within the previous 12 months, or had medical conditions potentially precluding safe study participation or affecting study results, such as significant postural hypotension, abnormal test results of digital rectal examinations (except benign prostate enlargement), prostate-specific antigen >10.0 ng/mL, and liver or renal insufficiency. Patients treated with medications that might confound study results, such as α-blockers (for conditions other than CP/CPPS), 5α-reductase inhibitors, tricyclic antidepressants, androgens, and ketoconazole, had to undergo appropriate washout periods to be eligible.
as §2, §3, §4

α1A receptor = target: T1, α1A receptor (Homo sapiens, UniProt P35348); settings: cited from earlier work
T1 sequence (P35348 1-466): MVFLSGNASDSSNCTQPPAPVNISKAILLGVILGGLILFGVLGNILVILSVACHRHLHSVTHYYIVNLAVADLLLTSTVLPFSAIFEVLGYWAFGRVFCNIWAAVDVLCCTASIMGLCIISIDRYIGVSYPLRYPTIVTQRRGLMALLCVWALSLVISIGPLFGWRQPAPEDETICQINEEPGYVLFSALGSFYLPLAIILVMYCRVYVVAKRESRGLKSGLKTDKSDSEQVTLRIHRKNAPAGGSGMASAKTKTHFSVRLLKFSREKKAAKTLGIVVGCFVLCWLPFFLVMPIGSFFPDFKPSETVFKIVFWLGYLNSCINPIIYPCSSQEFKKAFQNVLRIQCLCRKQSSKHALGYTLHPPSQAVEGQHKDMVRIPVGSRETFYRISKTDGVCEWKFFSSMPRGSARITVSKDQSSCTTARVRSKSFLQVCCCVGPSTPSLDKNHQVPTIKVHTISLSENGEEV

patients with CP/CPPS = settings: 10 mg once daily, versus placebo; cited from earlier work
[5] = 8 mg once daily for 7 days, mean (SD)
[6] = 4 mg, Week 12 ET (early termination counted as nonresponse)

C[C@H](Cc1cc2c(c(C(N)=O)c1)N(CCC(=O)O)CC2)NCCOc1ccccc1OCC(F)(F)F [compound 3293]
AUC(0-24) [1, 5]: 373.0 (141.72) ng * hr/mL | Cmax [1, 5]: 34.3 (12.58) ng/mL | Tmax ([1]; mean (SD)): 4.1 (1.29) hr

C[C@H](Cc1cc2c(c(C(N)=O)c1)N(CCCO[C@@H]1O[C@H](C(=O)O)[C@@H](O)[C@H](O)[C@H]1O)CC2)NCCOc1ccccc1OCC(F)(F)F [3213G]
AUC(0-24) [1, 5]: 1660.5 (647.23) ng * hr/mL | Cmax [1, 5]: 102.4 (36.51) ng/mL | Tmax ([1]; mean (SD)): 5.5 (2.29) hr

C[C@H](Cc1cc2c(c(C(N)=O)c1)N(CCCO)CC2)NCCOc1ccccc1OCC(F)(F)F [silodosin]
Drug-related adverse events leading to discontinuation, all (men with CP/CPPS [2]; 4 mg): 3 n | Drug-related adverse events leading to discontinuation: RE/libido decreased (men with CP/CPPS [2]; 4 mg): 1 n | Drug-related adverse events leading to discontinuation: ejaculation failure (men with CP/CPPS [2]; 4 mg): 1 n | Drug-related adverse events leading to discontinuation: rash (men with CP/CPPS [2]; 4 mg): 1 n | Patients who discontinued study participation because of a drug-related adverse event (men with CP/CPPS [2]; 4 mg): 5.8% | Drug-related adverse event: Headache, patients (men with CP/CPPS [2]; 4 mg, safety population (n = 52)): 0 n | Patients who experienced serious adverse events (men with CP/CPPS [2]; 4 mg, not considered drug-related by the investigator (severe urosepsis; moderate syncope)): Two | Drug-related adverse events leading to discontinuation, all (men with CP/CPPS [2]; 8 mg): 6 n | Drug-related adverse events leading to discontinuation: RE (men with CP/CPPS [2]; 8 mg): 4 n | Drug-related adverse events leading to discontinuation: nasal congestion (men with CP/CPPS [2]; 8 mg): 2 n | Patients who discontinued study participation because of a drug-related adverse event (men with CP/CPPS [2]; 8 mg): 13.3% | Tmax ([1]; human, plasma, oral, 8 mg, mean (SD), read-out: Tmax): ~2.6 h | AUC(0-t) ([1]; human, plasma, oral, 8 mg once daily for 7 days, mean (SD), read-out: AUC(0-24)): 373 ng·h/mL | Cmax ([1]; human, plasma, oral, 8 mg once daily for 7 days, mean (SD), read-out: Cmax): 61.6 ng/mL | half-life ([1]; human, plasma, oral, 8 mg once daily for 7 days, mean ± SD): 13.3 h | kel, median ([3]; 4 mg): 0.0489 h⁻¹ | kel, mean ([3]; 4 mg, n 19): 0.0552 h⁻¹ | kel, median ([3]; 8 mg): 0.0573 h⁻¹ | kel, mean ([3]; 8 mg, n 21): 0.0551 h⁻¹ | AUC(0-t) ([3]; 4 mg, N = 22, read-out: AUC [0-24], mean): 159 ng·h/mL | half-life ([3]; 4 mg, n 19, read-out: t½, mean (converted)): 15.3 h | AUC(0-t) ([3]; 4 mg, read-out: AUC [0-24], median): 156 ng·h/mL | Cmax ([3]; 4 mg, read-out: Cmax, mean): 28.4 ng/mL | Cmax ([3]; 4 mg, read-out: Cmax, median): 26.1 ng/mL | Tmax ([3]; 4 mg, read-out: Tmax, mean): 2.4 h | Tmax ([3]; 4 mg, read-out: Tmax, median): 2 h | half-life ([3]; 4 mg, read-out: t½, median (converted)): 14.2 h | AUC(0-t) ([3]; 8 mg, N = 22, read-out: AUC [0-24], mean): 297 ng·h/mL | half-life ([3]; 8 mg, n 21, read-out: t½, mean (converted)): 14.4 h | AUC(0-t) ([3]; 8 mg, read-out: AUC [0-24], median): 276 ng·h/mL | Cmax ([3]; 8 mg, read-out: Cmax, mean): 51.1 ng/mL | Cmax ([3]; 8 mg, read-out: Cmax, median): 50.3 ng/mL | Tmax ([3]; 8 mg, read-out: Tmax, mean): 2.5 h | Tmax ([3]; 8 mg, read-out: Tmax, median): 2 h | half-life ([3]; 8 mg, read-out: t½, median (converted)): 12.1 h | SF-12 mental component, adjusted mean difference versus placebo (95% CI) (men with CP/CPPS [4]; 4 mg once daily): 1.5 (−1.9, 4.9) | SF-12 mental component, change from baseline, mean ± SD (men with CP/CPPS [4]; 4 mg once daily): 3.2 ± 7.3 | SF-12 physical component, adjusted mean difference versus placebo (95% CI) (men with CP/CPPS [4]; 4 mg once daily): 3.0 (0.01, 6.0) | SF-12 physical component, change from baseline, mean ± SD (men with CP/CPPS [4]; 4 mg once daily): 4.2±8.1 | NIH-CPSI pain score, adjusted mean difference versus placebo (95% CI) (men with CP/CPPS [4]; 4 mg once daily, week 12, ITT): −1.6 (−3.4, 0.3) | NIH-CPSI pain score, change from baseline, mean ± SD (men with CP/CPPS [4]; 4 mg once daily, week 12, ITT): −5.9 ± 4.5 | NIH-CPSI quality-of-life impact score, adjusted mean difference versus placebo (95% CI) (men with CP/CPPS [4]; 4 mg once daily, week 12, ITT): −1.5 (−2.8, −0.3) | NIH-CPSI quality-of-life impact score, change from baseline, mean ± SD (men with CP/CPPS [4]; 4 mg once daily, week 12, ITT): −4.1 ± 3.1 | NIH-CPSI total score, change from baseline, mean ± SD (men with CP/CPPS [4]; 4 mg once daily, week 12, ITT): −12.1±9.3 | NIH-CPSI urinary symptoms score, adjusted mean difference versus placebo (95% CI) (men with CP/CPPS [4]; 4 mg once daily, week 12, ITT): −1.4 (−2.5, −0.3) | NIH-CPSI urinary symptoms score, change from baseline, mean ± SD (men with CP/CPPS [4]; 4 mg once daily, week 12, ITT): −2.2 ± 2.7 | GRA responders, patients (men with CP/CPPS [4]; [6]): 55.8% | NIH-CPSI responders, patients (men with CP/CPPS [4]; [6]): 59.6% | SF-12 mental component, adjusted mean difference versus placebo (95% CI) (men with CP/CPPS [4]; 8 mg once daily): −1.4 (−4.9, 2.1) | SF-12 mental component, change from baseline, mean ± SD (men with CP/CPPS [4]; 8 mg once daily): 0.5 ± 7.2 | SF-12 physical component, adjusted mean difference versus placebo (95% CI) (men with CP/CPPS [4]; 8 mg once daily): 2.7 (−0.4, 5.8) | SF-12 physical component, change from baseline, mean ± SD (men with CP/CPPS [4]; 8 mg once daily): 4.4 ± 7.0 | NIH-CPSI pain score, adjusted mean difference versus placebo (95% CI) (men with CP/CPPS [4]; 8 mg once daily, week 12, ITT): −0.5 (−2.4, 1.4) | NIH-CPSI pain score, change from baseline, mean ± SD (men with CP/CPPS [4]; 8 mg once daily, week 12, ITT): −4.9 ± 5.0 | NIH-CPSI quality-of-life impact score, adjusted mean difference versus placebo (95% CI) (men with CP/CPPS [4]; 8 mg once daily, week 12, ITT): −0.7 (−2.0, 0.5) | NIH-CPSI quality-of-life impact score, change from baseline, mean ± SD (men with CP/CPPS [4]; 8 mg once daily, week 12, ITT): −3.5 ± 3.0 | NIH-CPSI urinary symptoms score, adjusted mean difference versus placebo (95% CI) (men with CP/CPPS [4]; 8 mg once daily, week 12, ITT): −0.8 (−1.9, 0.3) | NIH-CPSI urinary symptoms score, change from baseline, mean ± SD (men with CP/CPPS [4]; 8 mg once daily, week 12, ITT): −1.8 ± 2.4 | NIH-CPSI responders, patients (men with CP/CPPS [4]; 8 mg, Week 12 ET (early termination counted as nonresponse)): 46.7% | Selectivity for the α1A receptor relative to α1B and α1D receptors (α1A receptor): high selectivity

COc1cc2nc(N(C)CCCNC(=O)C3CCCO3)nc(N)c2cc1OC (stereo not shown) [alfuzosin]
Reducing the symptoms of CP/CPPS (patients with CP/CPPS): not more effective than placebo
